Experimental data: PubChem BioAssay AID1259411 (Chemical Carcinogenesis Research Information System (CCRIS), 2018)
The source made the active and inactive calls. How the calls were made is not given here.

Tested on: rodent carcinogenicity bioassays, tumor incidence
Assay: CCRIS carcinogenicity studies
Procedure, shortened: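 NCI-built, expert-reviewed records of carcinogenicity and related test outcomes (mutagenicity, tumor promotion/inhibition) compiled from published and report sources, historical span 1985-2011, not updated.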

## CS(=O)CC(=O)c1ccccn1 (stereo not given)
Species: MOUSE, Strain/Sex: B6C3F1/FEMALE, Route: ORAL, Dose: 0, 40, 240, 600 MG/KG IN DIET FOR 80 WK (STUDY DURATION: 80 WK), Dose: 0, 40, 240, 600 MG/KG IN DIET FOR 80 WK (STUDY DURATION: 80 WK), Tumor Site: Type of Lesion: LUNG: ALVEOLOGENIC ADENOCARCINOMA
  carcinogen call: active; positive
Species: MOUSE, Strain/Sex: CF1/MALE, Route: ORAL, Dose: 0, 40, 240, 600 MG/KG IN DIET FOR 80 WK (STUDY DURATION: 80 WK), Dose: 0, 40, 240, 600 MG/KG IN DIET FOR 80 WK (STUDY DURATION: 80 WK)
  carcinogen call: inactive; negative
Species: RAT, Strain/Sex: WISTAR/FEMALE, Route: ORAL, Dose: 0, 40, 240, 600 MG/KG IN DIET FOR 104 WK (STUDY DURATION: 104 WK), Dose: 0, 40, 240, 600 MG/KG IN DIET FOR 104 WK (STUDY DURATION: 104 WK)
  carcinogen call: inactive; negative
Species: RAT, Strain/Sex: WISTAR/MALE, Route: ORAL, Dose: 0, 40, 240, 600 MG/KG IN DIET FOR 104 WK (STUDY DURATION: 104 WK), Dose: 0, 40, 240, 600 MG/KG IN DIET FOR 104 WK (STUDY DURATION: 104 WK), Tumor Site: Type of Lesion: LIVER: HEPATOCELLULAR ADENOMA
  carcinogen call: active; positive

## COc1ccc(C(=O)Nc2c(Cl)cncc2Cl)cc1OC1CCCC1
Species: RAT, Strain/Sex: SPRAGUE-DAWLEY/FEMALE, Route: INHALATION, Dose: 0, 0.125, 0.5, 1.0 MG/KG BW/D 1 HR/D IN A DRY-POWDER FORMULATION WITH LACTOSE VEHICLE USING A NOSE-ONLY AEROSOL EXPOSURE, Dose: 0, 0.125, 0.5, 1.0 MG/KG BW/D 1 HR/D IN A DRY-POWDER FORMULATION WITH LACTOSE VEHICLE USING A NOSE-ONLY AEROSOL EXPOSURE, Tumor Site: Type of Lesion: NASAL OLFACTORY REGION: TUMORS
  carcinogen call: active; positive
Species: RAT, Strain/Sex: SPRAGUE-DAWLEY/MALE, Route: INHALATION, Dose: 0, 0.125, 0.5, 1.0 MG/KG BW/D 1 HR/D IN A DRY-POWDER FORMULATION WITH LACTOSE VEHICLE USING A NOSE-ONLY AEROSOL EXPOSURE, Dose: 0, 0.125, 0.5, 1.0 MG/KG BW/D 1 HR/D IN A DRY-POWDER FORMULATION WITH LACTOSE VEHICLE USING A NOSE-ONLY AEROSOL EXPOSURE, Tumor Site: Type of Lesion: NASAL OLFACTORY REGION: TUMORS
  carcinogen call: active; positive

## O=NN1CCOC1
Species: HAMSTER, Strain/Sex: SYRIAN/MALE, Route: INTRAGASTRIC, Dose: 0, 23 MG/ML IN 0.2 ML STERILIZED WATER 1/WK FOR 35 WK (TOTAL DOSE 161 MG) (STUDY DURATION: LIFESPAN), Tumor Site: Type of Lesion: LIVER: HEPATOCELLULAR CARCINOMA, ADENOMA, HEMANGIOSARCOMA, CHOLANGIOCARCINOMA
  carcinogen call: active; positive
Species: RAT, Strain/Sex: F344/FEMALE, Route: ORAL, Dose: 35 MG/L IN DRINKING WATER FOR 50 WK, Tumor Site: Type of Lesion: LIVER: HEPATOCELLULAR CARCINOMA, HEMANGIOENDOTHELIAL SARCOMA
  carcinogen call: active; positive

## O=C1NCCN1c1ncc([N+](=O)[O-])s1
Species: HAMSTER, Route: ORAL, Tumor Site: Type of Lesion: FORESTOMACH, URINARY BLADDER
  carcinogen call: active; positive
Species: MOUSE, Route: ORAL, Tumor Site: Type of Lesion: FORESTOMACH, MAMMARY GLAND, OVARIES, LUNG, URINARY BLADDER, Tumor Site: Type of Lesion: FORESTOMACH, MAMMARY GLAND, OVARIES, LUNG, URINARY BLADDER
  carcinogen call: active; positive

## C=C(C)C#N
Species: MOUSE, Strain/Sex: B6C3F1/FEMALE, Route: GAVAGE, Dose: 0, 1.5, 3, 6 MG/KG 5 D/WK FOR 104-105 WK (STUDY DURATION: 104-105 WK), Dose: 0, 1.5, 3, 6 MG/KG 5 D/WK FOR 104-105 WK (STUDY DURATION: 104-105 WK)
  carcinogen call: inactive; negative
Species: MOUSE, Strain/Sex: B6C3F1/MALE, Route: GAVAGE, Dose: 0, 1.5, 3, 6 MG/KG 5 D/WK FOR 104-105 WK (STUDY DURATION: 104-105 WK), Dose: 0, 1.5, 3, 6 MG/KG 5 D/WK FOR 104-105 WK (STUDY DURATION: 104-105 WK)
  carcinogen call: inactive; negative
Species: RAT, Strain/Sex: F344/FEMALE, Route: GAVAGE, Dose: 0, 3, 10, 30 MG/KG 5 D/WK FOR 104-105 WK (STUDY DURATION: 104-105 WK), Dose: 0, 3, 10, 30 MG/KG 5 D/WK FOR 104-105 WK (STUDY DURATION: 104-105 WK)
  carcinogen call: inactive; negative
Species: RAT, Strain/Sex: F344/MALE, Route: GAVAGE, Dose: 0, 3, 10, 30 MG/KG 5 D/WK FOR 104-105 WK (STUDY DURATION: 104-105 WK), Dose: 0, 3, 10, 30 MG/KG 5 D/WK FOR 104-105 WK (STUDY DURATION: 104-105 WK)
  carcinogen call: inactive; negative

## O=[N+]([O-])c1ccc2c(c1)Cc1cc([N+](=O)[O-])ccc1-2
Species: Rat, Strain/Sex: Sprague-Dawley/Female (16/group), Route: Intraperitoneal, Dose: 10 umol/kg 3 times a wk for 4 wk (avg total dose 16.0 umol/rat), animals retained for up to 90 wk after last dosing (Tes, Tumor Site: Type of Lesion: Mammary Gland: % of rats with tumors (malignant 44, benign 38 vs 6 malignant, 53 benign in vehicle controls)
  carcinogen call: active; positive for malignant tumors only (p=0.02). dna adducts observed in mammary gla
Species: Rat, Strain/Sex: Sprague-Dawley/Female (17/group), Route: Oral, Dose: 10 umol/kg 3 times a wk for 4 wk (avg total dose 18.0 umol/rat), animals retained for up to 90 wk after last dosing (Tes, Tumor Site: Type of Lesion: Mammary Gland: % of rats with tumors (malignant 29, benign 53 vs 12 malignant, 53 benign in vehicle controls)
  carcinogen call: inactive; negative. dna adducts observed in mammary gland dna collected 24 hr after last d

## Cc1cc(O)c(C(C)(C)C)cc1Sc1cc(C(C)(C)C)c(O)cc1C
Species: MOUSE, Strain/Sex: B6C3F1/FEMALE, Route: ORAL, Dose: 0, 250, 500, 1000 PPM IN DIET FOR 2 YR (STUDY DURATION: 104 WK), Dose: 0, 250, 500, 1000 PPM IN DIET FOR 2 YR (STUDY DURATION: 104 WK)
  carcinogen call: inactive; negative
Species: MOUSE, Strain/Sex: B6C3F1/MALE, Route: ORAL, Dose: 0, 250, 500, 1000 PPM IN DIET FOR 2 YR (STUDY DURATION: 104 WK), Dose: 0, 250, 500, 1000 PPM IN DIET FOR 2 YR (STUDY DURATION: 104 WK)
  carcinogen call: inactive; negative
Species: RAT, Strain/Sex: F344/FEMALE, Route: ORAL, Dose: 0, 500, 1000, 2500 PPM IN DIET FOR 2 YR (STUDY DURATION: 104 WK), Dose: 0, 500, 1000, 2500 PPM IN DIET FOR 2 YR (STUDY DURATION: 104 WK)
  carcinogen call: inactive; negative
Species: RAT, Strain/Sex: F344/MALE, Route: ORAL, Dose: 0, 500, 1000, 2500 PPM IN DIET FOR 2 YR (STUDY DURATION: 104 WK), Dose: 0, 500, 1000, 2500 PPM IN DIET FOR 2 YR (STUDY DURATION: 104 WK)
  carcinogen call: inactive; negative
